Key:
[1] = target: CDK1/cyclinB (Homo sapiens, UniProt P06493); experiment: Kinase profiling panel: CDK1/cyclinB; type: biochemical; conditions: 5 μM compound; average of triplicate
Method: (§1) To further probe the selectivity of the compounds 4 and 15, they were subjected for kinase profiling service for screening against a panel of other kinases selected based on the kinase tree at 5 μM concentration, at or above the IC50 for the two compounds versus PAK in both in vitro and cell-based assays. […] PAK1 was not available for testing using this system thus it was not possible to compare directly in this assay system.

[2] = target: PAK4 (Homo sapiens, UniProt O96013); experiment: Kinase profiling panel: PAK4; type: biochemical; conditions: 5 μM compound; average of triplicate
Sequence of PAK4 (O96013 whole entry, species assumed): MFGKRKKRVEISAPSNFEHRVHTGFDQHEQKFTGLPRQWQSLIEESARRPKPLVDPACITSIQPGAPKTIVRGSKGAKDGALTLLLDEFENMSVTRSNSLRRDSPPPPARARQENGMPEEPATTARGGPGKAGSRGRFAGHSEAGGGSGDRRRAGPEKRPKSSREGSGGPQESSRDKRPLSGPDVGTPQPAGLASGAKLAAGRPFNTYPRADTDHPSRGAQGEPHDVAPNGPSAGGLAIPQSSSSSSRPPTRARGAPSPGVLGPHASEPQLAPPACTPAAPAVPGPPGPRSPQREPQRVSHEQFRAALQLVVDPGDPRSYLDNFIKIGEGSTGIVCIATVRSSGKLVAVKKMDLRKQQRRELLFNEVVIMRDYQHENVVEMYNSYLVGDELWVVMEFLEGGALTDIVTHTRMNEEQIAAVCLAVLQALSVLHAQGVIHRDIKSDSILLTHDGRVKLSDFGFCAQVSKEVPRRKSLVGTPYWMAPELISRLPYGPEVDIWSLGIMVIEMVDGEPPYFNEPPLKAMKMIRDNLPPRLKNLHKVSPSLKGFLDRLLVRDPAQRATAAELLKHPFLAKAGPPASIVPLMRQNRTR
Method: as §1

[3] = target: FGFR2 (Homo sapiens, UniProt P21802); experiment: Kinase profiling panel: FGFR2; type: biochemical; conditions: 5 μM compound; average of triplicate
Sequence of FGFR2 (P21802 22-821, species assumed): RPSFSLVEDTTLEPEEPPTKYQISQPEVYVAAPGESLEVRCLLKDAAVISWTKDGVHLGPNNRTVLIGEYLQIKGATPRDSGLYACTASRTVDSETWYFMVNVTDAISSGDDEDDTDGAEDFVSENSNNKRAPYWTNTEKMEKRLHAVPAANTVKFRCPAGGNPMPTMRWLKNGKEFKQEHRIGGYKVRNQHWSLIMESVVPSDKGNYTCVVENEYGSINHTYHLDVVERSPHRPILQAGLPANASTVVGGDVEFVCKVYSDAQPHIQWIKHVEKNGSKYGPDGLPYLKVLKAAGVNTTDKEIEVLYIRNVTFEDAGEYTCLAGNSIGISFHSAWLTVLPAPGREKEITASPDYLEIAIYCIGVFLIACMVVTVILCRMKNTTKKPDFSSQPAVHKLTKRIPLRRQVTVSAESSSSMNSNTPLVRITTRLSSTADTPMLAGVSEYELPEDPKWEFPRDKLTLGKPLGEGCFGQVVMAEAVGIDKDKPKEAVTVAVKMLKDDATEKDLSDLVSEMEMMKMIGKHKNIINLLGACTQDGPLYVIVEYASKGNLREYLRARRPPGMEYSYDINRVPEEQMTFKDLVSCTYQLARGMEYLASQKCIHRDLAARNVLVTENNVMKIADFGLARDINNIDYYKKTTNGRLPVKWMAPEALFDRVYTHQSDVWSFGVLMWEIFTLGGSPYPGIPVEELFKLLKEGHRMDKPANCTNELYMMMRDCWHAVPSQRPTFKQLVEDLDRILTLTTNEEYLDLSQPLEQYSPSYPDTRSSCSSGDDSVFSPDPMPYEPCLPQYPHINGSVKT
Method: as §1

[4] = system: PAK phosphorylation of Vimentin (Ser56); experiment: Western blot, PAK phosphorylation of Vimentin (Ser56) in thyroid cancer cells; type: cell-based, Human; conditions: for PAK phosphorylation of vimentin (Western blot): 7.5 μM, 6 h, FTC133 and TPC1 cells (FIG. 3); for PAK phosphorylation of vimentin (Western blot) / Dose-dependency of PAK inhibition (Vimentin phosphorylation): BCPAP; for IC50: Homo sapiens, cell-based assays, read-out: IC50 versus PAK, cell-based; for Dose-dependency of PAK inhibition (Vimentin phosphorylation): dose-response, 6 hours, FTC133 and TPC1 cells (FIG. 4A)
Method: Protein isolation and Western blot were performed as previously described. Ringel et al., Cancer research 61:6105-6111 (2001). 25 μg of total cell lysates were loaded into 4-12% SDS-PAGE, electrophoresed, and transferred to nitrocellulose membranes for immunoblotting. Primary antibodies against Akt (#9272), phospho-Akt (Thr308) (#2965), p44/42 MAPK (Erk1/2) (#9107), phospho-p44/42 MAPK (Erk1/2) (Thr202/Tyr204) (#4377) and GAPDH (#2118) were obtained from Cell Signaling Technology (Danvers, Mass., USA). Antibody against Vimentin (V6630) and phospho-Ser55 Vimentin were from Sigma-Aldrich, Inc. (St. Louis, Mo.) and MBL Co. (Nagoya, Japan), respectively. Antibodies against total and phosphorylated S6 were from Cell Signaling Technology®.
The ability of the compounds with in vitro anti-PAK1 activity was assessed for activity […] in thyroid cancer cells. In addition, because the compounds are based on the structure of a PDK1 inhibitor, PDK1 inhibitory activity was also assessed. Inhibitory activity in cells was estimated using Western blot with primary antibodies directed against kinase-specific phosphorylation sites; serine 56 of vimentin for PAK and threonine 308 of Akt for PDK1. BCPAP, TPC1, and FTC133 thyroid cancer cells were utilized. BCPAP and TPC1 are derived from PTC and have BRAF V600E and RET/PTC1 rearrangements, respectively. FTC133 is derived from a follicular thyroid cancer with an inactivating mutation of PTEN. Similar to the kinase screening assay, cells were treated with the six compounds or OSU-03012 at 7.5 μM concentration or with DMSO vehicle alone. The results were not entirely consistent across the three cell lines presumably related to mutation status or other factors. OSU-03012 inhibited both PDK1 and PAK-mediated phosphorylation of targets as predicted.
The dose-dependency of compounds 4 and 15 was next assessed (FIG. 4). […] Due to the important role that ERK activation plays in thyroid cancer, and its signaling activation by thyroid oncogenes, the effects of the compounds on ERK phosphorylation was also assessed.

[5] = system: FTC133 cells; experiment: MTT cell viability assay, FTC133; type: cell-based, Human; conditions: Homo sapiens, FTC-133, 72-hours of exposure, 1% FBS, mean±standard deviation (n=3), read-out: IC50 for reducing viability of FTC133 cells versus DMSO control
Excerpt: (§2) Human thyroid cancer BCPAP, TPC1, and FTC133 cell lines were the generous gifts of Drs. Rebecca Schweppe and Bryan Haugen (University of Colorado Denver) (Schweppe et al., The Journal of clinical endocrinology and metabolism 83:4331-4341 (2008)) with permission from the following originating laboratories: BCPAP—Dr. Fabien, Centre Hospitalier Lyon-Sud, France (Fabien et al., Cancer 73:2206-2212 (1994)); TPC1—Dr. Sato, Kanazawa University, Japan (Tanaka et al., Virology 161:62-411 (1987)); and FTC133—Dr. Goretzki, University of Leipzig, Germany (Goretzki et al., Recent Results Cancer Res 118:48-63 (1990)). The obtained cell lines were confirmed for identity by DNA fingerprinting. BCPAP was grown in RPMI 1640 medium (Life Technologies Co., Carlsbad, Calif.) while FTC133 and TPC1 were grown in DMEM (Life Technologies Co.), both supplemented with 10% fetal bovine serum (FBS) and NEAA unless as noted for experiments.
(§3) The effect of OSU-03012 and its derivatives on cell viability was assessed by using the 3-(4,5-dimethylthiazol-2-yl)-2,5-diphenyl-2H-tetrazolium bromide (MTT) assay. Three replicates were performed in each individual experiment, and experiments were repeated at least three separate times. Cells were grown in 96-well plates for 24 hours and were exposed to various concentrations of drugs dissolved in DMSO (final concentration 0.1%) in RPMI 1640 or DMEM containing 1% FBS for 72 hours. 10 μL of 0.5 mg/ml MTT was added to each well and cells were incubated in CO2 at 37° C. for 2 hours. Supernatants were removed from the wells, the reduced MTT dye was solubilized in 100 μL of solution C (12 ml of 1N HCl in 300 mL of isopropanol), and absorbance at 570 nm was determined on a microplate reader.
(§4) We assessed the ability of the compounds to reduce cell viability in vitro by MTT assay after 72 hours of continuous exposure. Results are shown in Table 1 and are depicted as the IC50 vs. simultaneously performed DMSO control.
(§5) ^aThe reported IC50 values are concentrations at which BCPAP, FTC133 and TPC1 cell viability by MTT assays 50% of DMSO control after 72-hours of exposure. Data are presented as mean±standard deviation (n=3). PAK and PDK1 Selectivity In Vivo

[6] = target: LIMK1 (Homo sapiens, UniProt P53667); experiment: Kinase profiling panel: LIMK1; type: biochemical; conditions: 5 μM compound; average of triplicate
Sequence of LIMK1 (P53667 whole entry, species assumed): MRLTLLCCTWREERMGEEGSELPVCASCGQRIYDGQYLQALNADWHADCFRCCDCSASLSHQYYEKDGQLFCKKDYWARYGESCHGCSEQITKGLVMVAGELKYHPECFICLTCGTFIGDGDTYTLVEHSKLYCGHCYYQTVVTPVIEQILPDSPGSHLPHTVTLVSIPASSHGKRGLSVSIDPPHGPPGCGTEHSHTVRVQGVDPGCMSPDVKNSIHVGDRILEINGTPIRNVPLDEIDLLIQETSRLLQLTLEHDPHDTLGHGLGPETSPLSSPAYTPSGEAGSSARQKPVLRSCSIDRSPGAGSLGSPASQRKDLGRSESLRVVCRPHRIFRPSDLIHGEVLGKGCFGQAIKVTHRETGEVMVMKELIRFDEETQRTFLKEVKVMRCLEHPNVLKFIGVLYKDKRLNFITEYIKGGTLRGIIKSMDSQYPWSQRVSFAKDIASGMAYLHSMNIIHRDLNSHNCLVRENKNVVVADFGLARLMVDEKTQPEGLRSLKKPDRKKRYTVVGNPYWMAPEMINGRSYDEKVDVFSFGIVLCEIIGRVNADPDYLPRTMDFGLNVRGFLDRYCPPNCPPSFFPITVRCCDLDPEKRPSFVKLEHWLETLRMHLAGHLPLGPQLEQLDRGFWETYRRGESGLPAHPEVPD
Method: as §1

[7] = system: BCPAP cells; experiment: MTT cell viability assay, BCPAP; type: cell-based, Human; conditions: Homo sapiens, BCPAP, 72-hours of exposure, 1% FBS, mean±standard deviation (n=3), read-out: IC50 for reducing viability of BCPAP cells versus DMSO control
Excerpt: as §2, §3, §4, §5

[8] = target: p70S6K (Homo sapiens, UniProt P23443); experiment: Kinase profiling panel: p70S6K; type: biochemical; conditions: 5 μM compound; for % activity vs. DMSO, p70S6K: average of triplicate
Sequence of p70S6K (P23443 whole entry): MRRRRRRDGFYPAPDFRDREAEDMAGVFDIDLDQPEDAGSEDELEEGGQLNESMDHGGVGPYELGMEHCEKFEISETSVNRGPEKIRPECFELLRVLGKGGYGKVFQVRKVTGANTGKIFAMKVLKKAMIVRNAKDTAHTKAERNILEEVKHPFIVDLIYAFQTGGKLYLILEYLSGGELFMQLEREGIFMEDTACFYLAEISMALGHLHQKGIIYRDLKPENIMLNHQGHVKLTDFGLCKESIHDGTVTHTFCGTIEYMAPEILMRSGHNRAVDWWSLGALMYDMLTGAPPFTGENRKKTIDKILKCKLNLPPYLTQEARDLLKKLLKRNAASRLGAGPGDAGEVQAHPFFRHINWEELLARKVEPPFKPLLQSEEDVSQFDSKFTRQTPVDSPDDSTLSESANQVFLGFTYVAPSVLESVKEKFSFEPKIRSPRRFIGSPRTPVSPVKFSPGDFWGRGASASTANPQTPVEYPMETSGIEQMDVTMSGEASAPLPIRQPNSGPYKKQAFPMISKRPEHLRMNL
Method: as §1

[9] = target: PAK3 (Homo sapiens, UniProt O75914); experiment: Kinase profiling panel: PAK3; type: biochemical; conditions: 5 μM compound; average of triplicate
Sequence of PAK3 (O75914 whole entry, species assumed): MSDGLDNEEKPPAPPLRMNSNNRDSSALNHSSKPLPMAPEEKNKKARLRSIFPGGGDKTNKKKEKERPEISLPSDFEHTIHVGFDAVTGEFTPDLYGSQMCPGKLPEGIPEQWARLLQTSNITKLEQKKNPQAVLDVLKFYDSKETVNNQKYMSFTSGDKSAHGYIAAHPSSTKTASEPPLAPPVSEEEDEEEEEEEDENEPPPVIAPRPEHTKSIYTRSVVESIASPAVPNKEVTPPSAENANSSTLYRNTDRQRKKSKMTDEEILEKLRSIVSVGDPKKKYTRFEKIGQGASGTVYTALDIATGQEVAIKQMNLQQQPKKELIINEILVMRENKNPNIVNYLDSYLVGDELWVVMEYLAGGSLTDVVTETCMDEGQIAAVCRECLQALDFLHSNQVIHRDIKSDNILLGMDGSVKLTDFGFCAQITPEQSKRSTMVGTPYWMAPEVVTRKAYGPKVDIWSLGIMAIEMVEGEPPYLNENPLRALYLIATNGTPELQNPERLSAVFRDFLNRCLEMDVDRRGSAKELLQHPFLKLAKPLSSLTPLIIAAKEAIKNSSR
Method: as §1

Sequence of CDK1/cyclinB (P06493 whole entry, species assumed): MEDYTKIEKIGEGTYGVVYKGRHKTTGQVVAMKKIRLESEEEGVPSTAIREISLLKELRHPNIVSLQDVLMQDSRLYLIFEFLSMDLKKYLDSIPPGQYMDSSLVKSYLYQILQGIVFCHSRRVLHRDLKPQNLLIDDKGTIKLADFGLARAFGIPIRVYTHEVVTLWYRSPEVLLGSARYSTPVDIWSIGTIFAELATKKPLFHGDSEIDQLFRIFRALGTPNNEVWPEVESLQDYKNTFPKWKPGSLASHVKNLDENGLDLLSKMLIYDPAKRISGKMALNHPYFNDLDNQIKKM
Sequence of CDK1/cyclinB (P14635 whole entry partner, species assumed): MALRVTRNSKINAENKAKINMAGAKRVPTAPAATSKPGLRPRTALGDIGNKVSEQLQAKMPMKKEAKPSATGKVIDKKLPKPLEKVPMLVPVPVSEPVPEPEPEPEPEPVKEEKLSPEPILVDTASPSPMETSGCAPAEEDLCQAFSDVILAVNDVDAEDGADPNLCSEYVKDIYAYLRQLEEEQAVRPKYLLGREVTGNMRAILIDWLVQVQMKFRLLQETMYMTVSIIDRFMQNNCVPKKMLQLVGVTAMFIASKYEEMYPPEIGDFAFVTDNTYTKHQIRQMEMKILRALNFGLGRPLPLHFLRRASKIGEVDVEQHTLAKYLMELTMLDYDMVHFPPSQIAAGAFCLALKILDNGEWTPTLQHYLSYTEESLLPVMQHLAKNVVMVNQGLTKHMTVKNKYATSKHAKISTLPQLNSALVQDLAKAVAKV

| Structure (SMILES) | % activity vs. DMSO, CDK1/cyclinB [1] [%] | % activity vs. DMSO, PAK4 [2] [%] | % activity vs. DMSO, FGFR2 [3] [%] | PAK phosphorylation of vimentin (Western blot) [4] | IC50 [4] [nM] | Dose-dependency of PAK inhibition (Vimentin phosphorylation) [4] | IC50 [5] [nM] | % activity vs. DMSO, LIMK1 [6] [%] | IC50 [7] [nM] | inhibition at 5 µM [8] [%] | % activity vs. DMSO, p70S6K [8] [%] | % activity vs. DMSO, PAK3 [9] [%] |
| --- | --- | --- | --- | --- | --- | --- | --- | --- | --- | --- | --- | --- |
| NCCC(=O)Nc1ccc(-n2nc(C(F)(F)F)cc2-c2ccc3ccc4ccccc4c3c2)cc1 [Compound 4, 3-amino-N-(4-(5-(phenanthren-3-yl)-3-(trifluoromethyl)-1H-pyrazol-1-yl)phenyl)-propanamide] | 83 | 101 | 92 | inhibited PAK | ≤ 5000 | inhibited PAK1 in a dose dependent manner | 2680 ± 2080 | 130 | 2070 ± 60 | > 50 | 28 | 211 |
| CC(C)NC(=O)c1cc(-c2ccc3ccc4ccccc4c3c2)n(-c2ccc(NC(=O)CN)cc2)n1 [Compound 15, 1-(4-(2-Aminoacetamido)phenyl)-N-isopropyl-5-(phenanthren-3-yl)-1H-pyrazole-3-carboxamide] | 95 | 105 | 99 | inhibited PAK | ≤ 5000 | inhibited PAK1 in a dose dependent manner | 3370 ± 3310 | 117 | 1490 ± 680 | > 50 | 38 | 99 |

Reference: patent US9156790B2, “Anticancer P21-activated kinase inhibitors” (Ohio State Innovation Foundation, priority 2013, dated 2015)
